Test results: patent US11104648B2, “Pyrazole derivative” (Zhejiang Research Institute of Chemical Industry Co., Ltd., priority 2018, dated 2021)
Like-named read-outs stand apart in the source and are kept apart here.

Legend:
Assay type in all cases: in vivo
[1] = tested on: Eggs of Tetranychus Cinnabarinus; assay: Activity assay of eggs of Tetranychus cinnabarinus (spray method, ovicidal); conditions: Tetranychus cinnabarinus; for pest or weed control at 2 µg/mL: concentration 2 mg/L
Protocol: According to the solubility of the test compound, the crude drug was dissolved in N N-dimethylformamide, and then prepared into a test solution of the desired concentration with 1‰ Tween 80 aqueous solution. The content of N. N-dimethylformamide in the solution should not exceed 10%.
Spray method. The broad bean leaves with petioles were cut and inserted into a bottle with water. A certain number of female mites were placed, 24h later, adult mites were removed, and spray treatment was performed in 24 h. The experiment was repeated three times, and a blank control was set, and placed to an observation room (26±2° C., humidity 70%˜80%, 16h light per day) for culture. When the blank control group was incubated, the results were investigated. The non-incubated ones were used as death for investigation.

[2] = tested on: Tetranychus cinnabarinus Nymphs; assay: Activity assay of Tetranychus cinnabarinus nymphs (spray on broad bean leaves)
Protocol: According to the solubility of the test compound, the crude drug was dissolved in N, N-dimethylformamide, and then prepared into a test solution of the desired concentration with 1‰ Tween 80 aqueous solution. The content of N,N-dimethylformamide in the solution should not exceed 10%.
The broad bean leaves with petioles were cut and inserted into a small bottle with water. A certain number of brightly colored, active female adult mites were placed, 24h later, adult mites were removed, and leaves with insufficient eggs were removed. When eggs were hatched and grew into nymphs, spray treatment was performed. The experiment was repeated three times, and a blank control was set, and placed to an observation room (26±2° C., humidity 70%˜80%, 16h light per day) for culture. 48 h later, the results were investigated. The nymphs were gently touched during investigation, and if no response, they were regarded as deaths.

[3] = tested on: adult Tetranychus cinnabarinus; assay: Activity assay of adult Tetranychus cinnabarinus (whole-plant spray on bean seedlings); conditions: 48 h; for pest or weed control at 1.25 µg/mL: concentration 1.25 mg/L
Protocol: According to the solubility of the test compound, the crude drug was dissolved in N, N-dimethlfornamide, and then prepared into a test solution of the desired concentration with 1‰ Tween 80 aqueous solution. The content of N,N-dimethylformamide in the solution should not exceed 10%.
Two euphylla bean seedlings were taken, after inoculated with adult Tetranychus cinnabarinus and the base number was investigated, whole plants were sprayed with a hand-held sprayer. The experiment was repeated three times for each treatment, after treatment, placed in a standard observation room after treatment, to investigate the survival number of mites in 48 hand calculate the death rate.

[4] = concentration 5 mg/L, spray, non-incubated eggs counted as dead, read-out: ovicidal activity
[5] = 48 h, concentration 2.5 mg/L, read-out: nymph-killing activity
[6] = concentration 2.5 mg/L, read-out: adult mite-killing activity
[7] = spray, read-out: ovicidal activity
[8] = eggs, parallel determination, read-out: Death rate (%)
[9] = 48 h, concentration 2 mg/L, read-out: nymph-killing activity
[10] = adult mites, parallel determination, read-out: Death rate (%)
[11] = read-out: adult mite-killing activity
[12] = 48 h, concentration 0.5 mg/L, read-out: nymph-killing activity
[13] = 48 h, nymphs, concentration 0.5 mg/L, parallel determination, read-out: Death rate (%)
[14] = 48 h, read-out: nymph-killing activity
[15] = concentration 2.5 mg/L, 48 h, read-out: nymph-killing activity

Row | Structure (SMILES) | pest or weed control at 5 µg/mL [1, 4] [%] | pest or weed control at 2.5 µg/mL [2, 5] [%] | pest or weed control at 2.5 µg/mL [3, 6] [%] | further results
1 | CSCCOC(=O)OCO/C(=C(/C#N)c1ccc(C(C)(C)C)cc1)c1cc(C)nn1C [Compound 471] | ≥ 90 | ≥ 95 | ≥ 90 | –
2 | CCn1nc(C)c(C)c1/C(OCOC(=O)C(F)(F)F)=C(\C#N)c1ccc(C(C)(C)C)cc1 [Compound 388] | ≥ 90 | ≥ 95 | ≥ 90 | –
3 | CCn1nc(C)c(C)c1/C(OCOC(C)=O)=C(\C#N)c1ccc(C(C)(C)C)cc1 [Compound 376] | ≥ 90 | ≥ 95 | ≥ 90 | –
4 | CCOC(=O)OCO/C(=C(/C#N)c1ccc(C(C)(C)C)cc1)c1c(C)c(C)nn1CC [Compound 932] | ≥ 90 | ≥ 95 | ≥ 90 | pest or weed control at 2 µg/mL [1, 7]: ≥ 90%; pest or weed control at 2 µg/mL [1, 8]: 97%; pest or weed control at 2 µg/mL [2, 9]: ≥ 90%; pest or weed control at 1.25 µg/mL [3, 10]: 90%; pest or weed control at 1.25 µg/mL [3, 11]: ≥ 90%
5 | CCCCOC(=O)OCO/C(=C(/C#N)c1ccc(C(C)(C)C)cc1)c1cc(C)nn1CC [Compound 552] | ≥ 90 | ≥ 95 | ≥ 90 | –
6 | CCn1nc(C)c(C)c1/C(OCOC(=O)COC)=C(\C#N)c1ccc(C(C)(C)C)cc1 [Compound 383] | ≥ 90 | ≥ 95 | ≥ 90 | –
7 | CCCC(=O)OC(C)OC(=C(C#N)c1ccc(C(C)(C)C)cc1)c1ccccc1C(F)(F)F (centres unmarked) [Compound 8-3, reference compound] | < 30 | < 80 | < 80 | pest or weed control at 2 µg/mL [1, 7]: 0%; pest or weed control at 2 µg/mL [1, 8]: 0%; pest or weed control at 0.5 µg/mL [2, 12]: < 30%; pest or weed control at 0.5 µg/mL [2, 13]: 30%; pest or weed control at 1.25 µg/mL [3, 10]: 45%; pest or weed control at 1.25 µg/mL [3, 11]: < 50%
8 | Cc1cc(/C(OC(C)OC(=O)CF)=C(\C#N)c2ccc(C(C)(C)C)cc2)n(C)n1 (centres unmarked) [Compound 37] | – | – | – | pest or weed control at 5 µg/mL ([1]; read-out: ovicidal activity): ≥ 90%; pest or weed control at 2.5 µg/mL [2, 14]: ≥ 95%; pest or weed control at 2.5 µg/mL [3, 11]: ≥ 90%
9 | CCn1nc(C)c(C)c1/C(OC(C)OC(=O)OCC(C)C)=C(\C#N)c1ccc(C(C)(C)C)cc1 (centres unmarked) [Compound 969] | ≥ 90 | ≥ 95 | ≥ 90 | pest or weed control at 2 µg/mL [1, 7]: ≥ 90%; pest or weed control at 2 µg/mL [2, 9]: ≥ 90%; pest or weed control at 1.25 µg/mL [3, 11]: ≥ 90%
10 | CCC(C)(C)C(=O)OC(C)O/C(=C(/C#N)c1ccc(C(C)(C)C)cc1)c1c(C)c(C)nn1C (centres unmarked) [Compound 191] | ≥ 90 | ≥ 95 | ≥ 90 | –
11 | Cc1nn(C)c(/C(OCOC(=O)C(F)(F)F)=C(\C#N)c2ccc(C(C)(C)C)cc2)c1Cl [Compound 88] | ≥ 90 | ≥ 95 | ≥ 90 | –
12 | CCCCOC(=O)OC(C)O/C(=C(/C#N)c1ccc(C(C)(C)C)cc1)c1cc(C)nn1C (centres unmarked) [Compound 488] | ≥ 90 | ≥ 95 | ≥ 90 | –
13 | CCCOC(=O)OCO/C(=C(/C#N)c1ccc(C(C)(C)C)cc1)c1c(C)c(C)nn1CC [Compound 933] | ≥ 90 | ≥ 95 | ≥ 90 | pest or weed control at 2 µg/mL [1, 7]: ≥ 90%; pest or weed control at 2 µg/mL [2, 9]: ≥ 90%; pest or weed control at 1.25 µg/mL [3, 11]: ≥ 90%
14 | Cc1nn(C)c(/C(OC(C)OC(=O)C(C)(C)C)=C(\C#N)c2ccc(C(C)(C)C)cc2)c1C (centres unmarked) [Compound 180] | ≥ 90 | ≥ 95 | ≥ 90 | –
15 | CCn1nc(C)cc1/C(OC(C)OC(=O)OCCOC)=C(\C#N)c1ccc(C(C)(C)C)cc1 (centres unmarked) [Compound 596] | ≥ 90 | ≥ 95 | ≥ 90 | –
16 | Cc1cc(/C(OCOC(=O)C(C)C)=C(\C#N)c2ccc(C(C)(C)C)cc2)n(C)n1 [Compound 4] | ≥ 90 | ≥ 95 | ≥ 90 | –
17 | CCn1nc(C)c(C)c1/C(OC(C)OC(=O)C(C)C)=C(\C#N)c1ccc(C(C)(C)C)cc1 (centres unmarked) [Compound 404] | ≥ 90 | ≥ 95 | ≥ 90 | –

Row | Structure (SMILES) | pest or weed control at 5 µg/mL [1, 4] [%] | pest or weed control at 2.5 µg/mL [2, 5] [%] | pest or weed control at 2.5 µg/mL [3, 6] [%] | further results
18 | CCn1nc(C)cc1/C(OCOC(=O)CF)=C(\C#N)c1ccc(C(C)(C)C)cc1 [Compound 237] | – | – | – | pest or weed control at 5 µg/mL ([1]; read-out: ovicidal activity): ≥ 90%; pest or weed control at 2.5 µg/mL [2, 14]: ≥ 95%; pest or weed control at 2.5 µg/mL [3, 11]: ≥ 90%
19 | Cc1nn(C)c(/C(OCOC(=O)C(F)(F)F)=C(\C#N)c2ccc(C(C)(C)C)cc2)c1C [Compound 163] | ≥ 90 | ≥ 95 | ≥ 90 | –
20 | CCn1nc(C)cc1/C(OC(C)OC(=O)Cc1ccccc1)=C(\C#N)c1ccc(C(C)(C)C)cc1 (centres unmarked) [Compound 265] | ≥ 90 | – | ≥ 90 | pest or weed control at 2.5 µg/mL [2, 15]: ≥ 95%
21 | Cc1cc(/C(OC(C)OC(=O)Cc2ccccc2)=C(\C#N)c2ccc(C(C)(C)C)cc2)n(C)n1 (centres unmarked) [Compound 40] | ≥ 90 | – | ≥ 90 | pest or weed control at 2.5 µg/mL [2, 15]: ≥ 95%
22 | CCn1nc(C)c(Cl)c1/C(OC(C)OC(=O)C(C)(C)C)=C(\C#N)c1ccc(C(C)(C)C)cc1 (centres unmarked) [Compound 330] | ≥ 90 | ≥ 95 | ≥ 90 | –
23 | CCCC(=O)OCO/C(=C(/C#N)c1ccc(C(C)(C)C)cc1)c1cc(C)nn1CC [Compound 228] | ≥ 90 | ≥ 95 | ≥ 90 | –
24 | CC(=O)OCO/C(=C(/C#N)c1ccc(C(C)(C)C)cc1)c1c(C)c(C)nn1C [Compound 151] | ≥ 90 | ≥ 95 | ≥ 90 | –
25 | CCCCC(=O)OC(C)O/C(=C(/C#N)c1ccc(C(C)(C)C)cc1)c1cc(C)nn1CC (centres unmarked) [Compound 256] | ≥ 90 | ≥ 95 | ≥ 90 | –
26 | Cc1cc(/C(OC(C)OC(=O)CC(C)C)=C(\C#N)c2ccc(C(C)(C)C)cc2)n(C)n1 (centres unmarked) [Compound 32] | ≥ 90 | ≥ 95 | ≥ 90 | –
27 | CCn1nc(C)c(C)c1/C(OCOC(=O)C1CCCCC1)=C(\C#N)c1ccc(C(C)(C)C)cc1 [Compound 386] | ≥ 90 | ≥ 95 | ≥ 90 | –
28 | COC(=O)CSC(=O)OC(C)O/C(=C(/C#N)c1ccc(C(C)(C)C)cc1)c1cc(C)nn1C (centres unmarked) [Compound 513] | ≥ 90 | ≥ 95 | ≥ 90 | –
29 | C#CCOC(=O)OCO/C(=C(/C#N)c1ccc(C(C)(C)C)cc1)c1cc(C)nn1CC [Compound 572] | ≥ 90 | ≥ 95 | ≥ 90 | –
30 | CCn1nc(C)c(Cl)c1/C(OC(C)OC(=O)CSC)=C(\C#N)c1ccc(C(C)(C)C)cc1 (centres unmarked) [Compound 335] | ≥ 90 | ≥ 95 | ≥ 90 | –
31 | CCCC(=O)OCOC(=C(C#N)c1ccc(C(C)(C)C)cc1)c1ccccc1C(F)(F)F [Compound 8-4, reference compound] | < 30 | < 80 | < 80 | pest or weed control at 2 µg/mL [1, 7]: 0%; pest or weed control at 2 µg/mL [1, 8]: 0%; pest or weed control at 0.5 µg/mL [2, 12]: < 30%; pest or weed control at 0.5 µg/mL [2, 13]: 15%; pest or weed control at 1.25 µg/mL [3, 10]: 50%; pest or weed control at 1.25 µg/mL [3, 11]: < 50%
32 | CCn1nc(C)c(C)c1/C(OCOC(=O)C(C)C)=C(\C#N)c1ccc(C(C)(C)C)cc1 [Compound 379] | ≥ 90 | ≥ 95 | ≥ 90 | –
33 | CCn1nc(C)cc1/C(OC(C)OC(=O)C1CCCCC1)=C(\C#N)c1ccc(C(C)(C)C)cc1 (centres unmarked) [Compound 261] | ≥ 90 | ≥ 95 | ≥ 90 | –
